Experiments:
Assay in all cases: radiometric filter-binding kinase assay, Kinase HotSpot
Conditions in all cases: compound 0.5 µM; ATP 10 µM
ADRBK1 (human) = ADRBK1 (human) (UniProt P25098)
ADRBK2 (human) = ADRBK2 (human) (UniProt P35626)
AKT3 (human) = AKT3 (human) (UniProt Q9Y243)
BLK (human) = BLK (human) (UniProt P51451)
CAMK1 (human) = CAMK1 (human) (UniProt Q14012)
CAMK1G (human) = CAMK1G (human) (UniProt Q96NX5)
CDK6 CCND1 (human) = CDK6 CCND1 (human) (UniProt Q00534+P24385)
CDK7 CCNH MNAT1 (human) = CDK7 CCNH MNAT1 (human) (UniProt P50613+P51948+P51946)
CDK9 CCNK (human) = CDK9 CCNK (human) (UniProt O75909+P50750)
CHUK (human) = CHUK (human) (UniProt O15111)
CSF1R (human) = CSF1R (human) (UniProt P07333)
DAPK3 (human) = DAPK3 (human) (UniProt O43293)
DSTYK (human) = DSTYK (human) (UniProt Q6XUX3)
DYRK1A (human) = DYRK1A (human) (UniProt Q13627)
DYRK2 (human) = DYRK2 (human) (UniProt Q92630)
DYRK4 (human) = DYRK4 (human) (UniProt Q9NR20)
EPHA2 (human) = EPHA2 (human) (UniProt P29317)
ERBB2 (human) = ERBB2 (human) (UniProt P04626)
FER (human) = FER (human) (UniProt P16591)
FGFR1 (human) = FGFR1 (human) (UniProt P11362)
FGR (human) = FGR (human) (UniProt P09769)
IRAK1 (human) = IRAK1 (human) (UniProt P51617)
IRAK4 (human) = IRAK4 (human) (UniProt Q9NWZ3)
[1] = biological target: JAK1 JH1 catalytic (human) (UniProt P23458)
MAPK12 (human) = MAPK12 (human) (UniProt P53778)
MAPK14 (human) = MAPK14 (human) (UniProt Q16539)
MAPK8 (human) = MAPK8 (human) (UniProt P45983)
MINK1 (human) = MINK1 (human) (UniProt Q8N4C8)
MST4 (human) = MST4 (human) (UniProt Q9P289)
MYLK (human) = MYLK (human) (UniProt Q15746)
NEK3 (human) = NEK3 (human) (UniProt P51956)
NEK7 (human) = NEK7 (human) (UniProt Q8TDX7)
NLK (human) = NLK (human) (UniProt Q9UBE8)
PAK7 (human) = PAK7 (human) (UniProt Q9P286)
PIM2 (human) = PIM2 (human) (UniProt Q9P1W9)
PTK2 (human) = PTK2 (human) (UniProt Q05397)
PTK2B (human) = PTK2B (human) (UniProt Q14289)
SRPK1 (human) = SRPK1 (human) (UniProt Q96SB4)
SRPK2 (human) = SRPK2 (human) (UniProt P78362)
STK24 (human) = STK24 (human) (UniProt Q9Y6E0)
STK33 (human) = STK33 (human) (UniProt Q9BYT3)
TAOK3 (human) = TAOK3 (human) (UniProt Q9H2K8)

DSTYK (human), sequence (Q6XUX3 whole entry, looked up): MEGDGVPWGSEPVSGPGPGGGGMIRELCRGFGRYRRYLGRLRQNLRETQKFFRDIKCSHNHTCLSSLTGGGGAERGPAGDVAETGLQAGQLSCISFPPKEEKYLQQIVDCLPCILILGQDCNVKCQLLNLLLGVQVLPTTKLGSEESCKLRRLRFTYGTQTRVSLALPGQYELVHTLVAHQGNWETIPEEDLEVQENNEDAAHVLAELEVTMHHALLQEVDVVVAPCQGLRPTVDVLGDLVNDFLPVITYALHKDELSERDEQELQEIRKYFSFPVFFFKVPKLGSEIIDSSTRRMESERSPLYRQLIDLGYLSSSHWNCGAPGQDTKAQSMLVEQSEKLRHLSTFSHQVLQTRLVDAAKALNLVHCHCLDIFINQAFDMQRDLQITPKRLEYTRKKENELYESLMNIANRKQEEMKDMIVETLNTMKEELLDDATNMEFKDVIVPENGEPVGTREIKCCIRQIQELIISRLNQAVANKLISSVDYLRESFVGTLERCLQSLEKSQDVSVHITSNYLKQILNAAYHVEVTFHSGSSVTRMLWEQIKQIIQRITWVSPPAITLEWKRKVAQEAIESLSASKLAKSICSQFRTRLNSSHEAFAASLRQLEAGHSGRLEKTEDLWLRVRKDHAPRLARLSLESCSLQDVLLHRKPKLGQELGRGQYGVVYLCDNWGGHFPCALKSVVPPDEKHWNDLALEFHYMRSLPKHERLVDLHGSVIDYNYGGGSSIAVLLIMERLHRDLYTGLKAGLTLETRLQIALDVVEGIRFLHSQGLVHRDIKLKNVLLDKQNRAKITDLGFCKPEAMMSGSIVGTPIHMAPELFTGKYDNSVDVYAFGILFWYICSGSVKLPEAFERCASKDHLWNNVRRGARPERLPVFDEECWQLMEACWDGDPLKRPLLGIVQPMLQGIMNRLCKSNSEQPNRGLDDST
EPHA2 (human), sequence (P29317 whole entry, looked up): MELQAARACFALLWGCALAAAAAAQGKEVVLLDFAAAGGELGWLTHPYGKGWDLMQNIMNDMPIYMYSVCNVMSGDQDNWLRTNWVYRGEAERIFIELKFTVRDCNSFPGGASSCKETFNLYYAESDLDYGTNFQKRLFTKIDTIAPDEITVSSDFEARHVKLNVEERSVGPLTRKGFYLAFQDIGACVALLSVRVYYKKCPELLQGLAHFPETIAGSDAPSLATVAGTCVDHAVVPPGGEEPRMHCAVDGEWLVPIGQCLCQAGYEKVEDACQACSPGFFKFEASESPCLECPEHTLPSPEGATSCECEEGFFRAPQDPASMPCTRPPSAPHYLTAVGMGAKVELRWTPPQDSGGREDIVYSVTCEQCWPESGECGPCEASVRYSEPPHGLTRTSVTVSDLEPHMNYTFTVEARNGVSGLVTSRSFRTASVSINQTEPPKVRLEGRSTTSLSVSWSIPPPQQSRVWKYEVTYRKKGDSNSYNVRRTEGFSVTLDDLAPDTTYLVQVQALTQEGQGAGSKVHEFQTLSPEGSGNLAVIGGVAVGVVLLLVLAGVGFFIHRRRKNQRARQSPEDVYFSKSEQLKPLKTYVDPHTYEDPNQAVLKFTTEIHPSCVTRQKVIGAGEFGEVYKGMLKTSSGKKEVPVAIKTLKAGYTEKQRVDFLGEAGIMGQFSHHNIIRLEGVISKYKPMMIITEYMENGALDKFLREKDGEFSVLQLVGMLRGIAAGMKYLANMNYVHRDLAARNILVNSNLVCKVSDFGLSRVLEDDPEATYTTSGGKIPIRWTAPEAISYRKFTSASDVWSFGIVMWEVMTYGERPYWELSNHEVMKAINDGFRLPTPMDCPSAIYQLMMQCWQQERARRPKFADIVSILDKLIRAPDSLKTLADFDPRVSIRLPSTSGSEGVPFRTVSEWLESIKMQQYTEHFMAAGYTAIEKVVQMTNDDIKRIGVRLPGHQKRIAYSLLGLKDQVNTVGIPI
NLK (human), sequence (Q9UBE8 whole entry, looked up): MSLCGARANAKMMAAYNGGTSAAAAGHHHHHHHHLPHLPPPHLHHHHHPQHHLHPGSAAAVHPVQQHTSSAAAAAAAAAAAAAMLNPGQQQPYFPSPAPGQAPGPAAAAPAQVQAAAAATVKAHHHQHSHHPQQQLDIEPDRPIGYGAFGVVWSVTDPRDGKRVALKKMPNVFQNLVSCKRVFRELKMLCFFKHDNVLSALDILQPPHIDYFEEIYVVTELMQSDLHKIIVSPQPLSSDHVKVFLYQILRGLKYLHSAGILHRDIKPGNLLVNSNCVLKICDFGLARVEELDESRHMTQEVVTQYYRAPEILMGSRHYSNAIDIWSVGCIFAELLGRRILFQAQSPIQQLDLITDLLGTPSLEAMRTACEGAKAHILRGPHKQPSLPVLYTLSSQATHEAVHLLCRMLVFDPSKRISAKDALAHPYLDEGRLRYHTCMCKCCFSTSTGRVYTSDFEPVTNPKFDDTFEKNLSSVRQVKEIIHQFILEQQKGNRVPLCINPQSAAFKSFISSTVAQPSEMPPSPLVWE
MAPK12 (human), sequence (P53778 whole entry, looked up): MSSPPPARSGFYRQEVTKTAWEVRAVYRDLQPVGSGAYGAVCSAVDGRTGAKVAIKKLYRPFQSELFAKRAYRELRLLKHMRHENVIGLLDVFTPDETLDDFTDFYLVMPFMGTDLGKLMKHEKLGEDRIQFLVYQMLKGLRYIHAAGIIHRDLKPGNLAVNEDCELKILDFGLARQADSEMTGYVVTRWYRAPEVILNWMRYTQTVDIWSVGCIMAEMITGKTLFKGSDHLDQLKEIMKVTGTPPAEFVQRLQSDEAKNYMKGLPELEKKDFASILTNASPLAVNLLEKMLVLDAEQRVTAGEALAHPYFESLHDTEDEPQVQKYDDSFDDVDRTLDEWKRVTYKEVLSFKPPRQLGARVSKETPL
BLK (human), sequence (P51451 whole entry, looked up): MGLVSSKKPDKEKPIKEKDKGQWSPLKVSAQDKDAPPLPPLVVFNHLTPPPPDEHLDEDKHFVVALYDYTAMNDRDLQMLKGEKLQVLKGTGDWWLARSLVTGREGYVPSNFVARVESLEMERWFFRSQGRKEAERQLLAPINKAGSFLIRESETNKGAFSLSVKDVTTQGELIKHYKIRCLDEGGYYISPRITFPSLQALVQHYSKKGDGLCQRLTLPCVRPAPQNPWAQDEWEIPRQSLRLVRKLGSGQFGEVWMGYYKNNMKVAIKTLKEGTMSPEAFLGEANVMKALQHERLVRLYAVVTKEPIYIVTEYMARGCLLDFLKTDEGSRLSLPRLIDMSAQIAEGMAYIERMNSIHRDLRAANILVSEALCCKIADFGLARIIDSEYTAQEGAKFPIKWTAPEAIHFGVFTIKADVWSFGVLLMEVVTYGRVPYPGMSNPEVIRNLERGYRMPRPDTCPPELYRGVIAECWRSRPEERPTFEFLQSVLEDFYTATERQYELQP
MST4 (human), sequence (Q9P289 whole entry, looked up): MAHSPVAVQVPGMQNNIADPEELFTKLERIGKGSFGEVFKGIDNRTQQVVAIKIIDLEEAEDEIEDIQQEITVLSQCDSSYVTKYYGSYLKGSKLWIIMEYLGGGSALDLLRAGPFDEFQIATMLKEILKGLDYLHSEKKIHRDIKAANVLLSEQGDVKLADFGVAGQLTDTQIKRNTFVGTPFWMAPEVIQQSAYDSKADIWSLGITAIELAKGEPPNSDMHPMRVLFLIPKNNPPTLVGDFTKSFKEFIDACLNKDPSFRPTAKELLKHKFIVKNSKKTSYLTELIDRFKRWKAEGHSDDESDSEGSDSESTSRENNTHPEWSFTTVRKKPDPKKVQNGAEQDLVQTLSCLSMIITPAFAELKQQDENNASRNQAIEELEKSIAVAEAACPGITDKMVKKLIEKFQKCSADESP
CDK6 CCND1 (human), sequence (P24385 whole entry, looked up): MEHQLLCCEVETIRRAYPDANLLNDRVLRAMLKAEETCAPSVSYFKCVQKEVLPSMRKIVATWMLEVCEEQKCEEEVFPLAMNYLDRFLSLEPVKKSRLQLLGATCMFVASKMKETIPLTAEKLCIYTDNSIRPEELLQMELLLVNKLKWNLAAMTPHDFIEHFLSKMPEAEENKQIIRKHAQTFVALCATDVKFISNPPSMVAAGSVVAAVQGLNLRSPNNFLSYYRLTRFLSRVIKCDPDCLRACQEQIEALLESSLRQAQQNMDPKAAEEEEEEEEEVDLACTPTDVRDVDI
CDK6 CCND1 (human), sequence (Q00534 whole entry, looked up): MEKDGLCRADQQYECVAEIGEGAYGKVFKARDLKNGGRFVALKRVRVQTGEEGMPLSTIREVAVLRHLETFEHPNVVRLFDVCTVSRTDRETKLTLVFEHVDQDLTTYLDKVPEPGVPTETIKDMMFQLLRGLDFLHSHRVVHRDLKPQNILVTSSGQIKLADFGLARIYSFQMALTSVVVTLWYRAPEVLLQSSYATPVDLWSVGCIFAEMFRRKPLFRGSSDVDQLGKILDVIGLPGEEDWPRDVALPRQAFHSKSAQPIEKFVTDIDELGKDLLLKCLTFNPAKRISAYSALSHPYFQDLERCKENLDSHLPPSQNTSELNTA
IRAK4 (human), sequence (Q9NWZ3 whole entry, looked up): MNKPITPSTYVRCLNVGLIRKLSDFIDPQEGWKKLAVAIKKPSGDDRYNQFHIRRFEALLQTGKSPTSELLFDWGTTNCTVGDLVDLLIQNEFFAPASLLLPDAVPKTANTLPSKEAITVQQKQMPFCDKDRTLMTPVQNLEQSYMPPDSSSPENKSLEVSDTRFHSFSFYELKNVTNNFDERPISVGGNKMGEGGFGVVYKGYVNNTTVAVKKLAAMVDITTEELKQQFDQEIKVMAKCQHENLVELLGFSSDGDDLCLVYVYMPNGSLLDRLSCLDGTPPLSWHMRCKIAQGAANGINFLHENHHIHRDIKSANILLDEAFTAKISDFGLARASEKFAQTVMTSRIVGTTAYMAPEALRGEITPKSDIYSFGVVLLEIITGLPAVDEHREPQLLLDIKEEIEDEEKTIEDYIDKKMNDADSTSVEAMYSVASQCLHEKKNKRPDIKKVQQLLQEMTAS

O=C(Nc1cccc(Nc2nccc(Nc3cccc(C(F)(F)F)c3)n2)c1)C1CC1
residual activity (ADRBK1 (human)): 84.7% | residual activity (ADRBK2 (human)): 93.1% | residual activity (AKT3 (human)): 108% | residual activity (BLK (human)): 99.8% | residual activity (CAMK1 (human)): 95.5% | residual activity (CAMK1G (human)): 98.8% | residual activity (CDK6 CCND1 (human)): 93.4% | residual activity (CDK7 CCNH MNAT1 (human)): 92.6% | residual activity (CDK9 CCNK (human)): 107% | residual activity (CHUK (human)): 95.7% | residual activity (CSF1R (human)): 63.1% | residual activity (DAPK3 (human)): 94.3% | residual activity (DSTYK (human)): 93.8% | residual activity (DYRK1A (human)): 107% | residual activity (DYRK2 (human)): 106% | residual activity (DYRK4 (human)): 107% | residual activity (EPHA2 (human)): 87.3% | residual activity (ERBB2 (human)): 93.8% | residual activity (FER (human)): 93% | residual activity (FGFR1 (human)): 99.6% | residual activity (FGR (human)): 80.9% | residual activity (IRAK1 (human)): 96.4% | residual activity (IRAK4 (human)): 146% | residual activity [1]: 74% | residual activity (MAPK12 (human)): 99.7% | residual activity (MAPK14 (human)): 91.5% | residual activity (MAPK8 (human)): 85.7% | residual activity (MINK1 (human)): 108% | residual activity (MST4 (human)): 84.4% | residual activity (MYLK (human)): 90% | residual activity (NEK3 (human)): 95.8% | residual activity (NEK7 (human)): 116% | residual activity (NLK (human)): 101% | residual activity (PAK7 (human)): 89.2% | residual activity (PIM2 (human)): 112% | residual activity (PTK2 (human)): 89.1% | residual activity (PTK2B (human)): 90.9% | residual activity (SRPK1 (human)): 104% | residual activity (SRPK2 (human)): 104% | residual activity (STK24 (human)): 98.3% | residual activity (STK33 (human)): 81.5% | residual activity (TAOK3 (human)): 110%

O=C1NC(=O)/C(=C/c2ccc3c(c2)OC(F)(F)O3)S1
residual activity (ADRBK1 (human)): 103% | residual activity (ADRBK2 (human)): 102% | residual activity (AKT3 (human)): 103% | residual activity (BLK (human)): 99.2% | residual activity (CAMK1 (human)): 89.9% | residual activity (CAMK1G (human)): 107% | residual activity (CDK6 CCND1 (human)): 95.4% | residual activity (CDK7 CCNH MNAT1 (human)): 98.3% | residual activity (CDK9 CCNK (human)): 93.5% | residual activity (CHUK (human)): 88.4% | residual activity (CSF1R (human)): 106% | residual activity (DAPK3 (human)): 104% | residual activity (DSTYK (human)): 89.3% | residual activity (DYRK1A (human)): 84.6% | residual activity (DYRK2 (human)): 98.6% | residual activity (DYRK4 (human)): 97.7% | residual activity (EPHA2 (human)): 96.3% | residual activity (ERBB2 (human)): 102% | residual activity (FER (human)): 97.2% | residual activity (FGFR1 (human)): 94.3% | residual activity (FGR (human)): 95.8% | residual activity (IRAK1 (human)): 84.2% | residual activity (IRAK4 (human)): 99.2% | residual activity [1]: 104% | residual activity (MAPK12 (human)): 92.8% | residual activity (MAPK14 (human)): 86.7% | residual activity (MAPK8 (human)): 95.1% | residual activity (MINK1 (human)): 90.1% | residual activity (MST4 (human)): 86.8% | residual activity (MYLK (human)): 99.4% | residual activity (NEK3 (human)): 92.6% | residual activity (NEK7 (human)): 105% | residual activity (NLK (human)): 93.8% | residual activity (PAK7 (human)): 93% | residual activity (PIM2 (human)): 91.9% | residual activity (PTK2 (human)): 94.9% | residual activity (PTK2B (human)): 110% | residual activity (SRPK1 (human)): 105% | residual activity (SRPK2 (human)): 105% | residual activity (STK24 (human)): 91.9% | residual activity (STK33 (human)): 90.8% | residual activity (TAOK3 (human)): 84.7%

O=C1NC(=O)c2c1c1c3ccccc3n3c1c1c2c2ccccc2n1C1CCC3O1
residual activity (ADRBK1 (human)): 97.9% | residual activity (ADRBK2 (human)): 101% | residual activity (AKT3 (human)): 27.1% | residual activity (BLK (human)): 37.7% | residual activity (CAMK1 (human)): 69.7% | residual activity (CAMK1G (human)): 56.5% | residual activity (CDK6 CCND1 (human)): 6.06% | residual activity (CDK7 CCNH MNAT1 (human)): 80.4% | residual activity (CDK9 CCNK (human)): 15.8% | residual activity (CHUK (human)): 106% | residual activity (CSF1R (human)): 29.3% | residual activity (DAPK3 (human)): 24.6% | residual activity (DSTYK (human)): 45.5% | residual activity (DYRK1A (human)): 8.74% | residual activity (DYRK2 (human)): 5.94% | residual activity (DYRK4 (human)): 87.8% | residual activity (EPHA2 (human)): 91.3% | residual activity (ERBB2 (human)): 98.4% | residual activity (FER (human)): 5.39% | residual activity (FGFR1 (human)): 29.1% | residual activity (FGR (human)): 30.9% | residual activity (IRAK1 (human)): 37.5% | residual activity (IRAK4 (human)): 14% | residual activity [1]: 22.2% | residual activity (MAPK12 (human)): 113% | residual activity (MAPK14 (human)): 102% | residual activity (MAPK8 (human)): 98.5% | residual activity (MINK1 (human)): 0.901% | residual activity (MST4 (human)): 20.5% | residual activity (MYLK (human)): 4.01% | residual activity (NEK3 (human)): 102% | residual activity (NEK7 (human)): 99.1% | residual activity (NLK (human)): 74.1% | residual activity (PAK7 (human)): 64.7% | residual activity (PIM2 (human)): 1.86% | residual activity (PTK2 (human)): 23.5% | residual activity (PTK2B (human)): 41.5% | residual activity (SRPK1 (human)): 88.1% | residual activity (SRPK2 (human)): 107% | residual activity (STK24 (human)): 14.3% | residual activity (STK33 (human)): 12.7% | residual activity (TAOK3 (human)): 24.5%

CCOC(=O)c1c(C)[nH]c(/C=C2\C(=O)Nc3ccccc32)c1C
residual activity (ADRBK1 (human)): 98.2% | residual activity (ADRBK2 (human)): 94.7% | residual activity (AKT3 (human)): 103% | residual activity (BLK (human)): 80.2% | residual activity (CAMK1 (human)): 98.1% | residual activity (CAMK1G (human)): 98.2% | residual activity (CDK6 CCND1 (human)): 89.7% | residual activity (CDK7 CCNH MNAT1 (human)): 96.8% | residual activity (CDK9 CCNK (human)): 97.5% | residual activity (CHUK (human)): 102% | residual activity (CSF1R (human)): 52.5% | residual activity (DAPK3 (human)): 85.1% | residual activity (DSTYK (human)): 90.8% | residual activity (DYRK1A (human)): 95.7% | residual activity (DYRK2 (human)): 92.4% | residual activity (DYRK4 (human)): 99.6% | residual activity (EPHA2 (human)): 105% | residual activity (ERBB2 (human)): 101% | residual activity (FER (human)): 72.5% | residual activity (FGFR1 (human)): 78.6% | residual activity (FGR (human)): 79.3% | residual activity (IRAK1 (human)): 111% | residual activity (IRAK4 (human)): 96.8% | residual activity [1]: 97.1% | residual activity (MAPK12 (human)): 101% | residual activity (MAPK14 (human)): 134% | residual activity (MAPK8 (human)): 106% | residual activity (MINK1 (human)): 88.9% | residual activity (MST4 (human)): 101% | residual activity (MYLK (human)): 94.8% | residual activity (NEK3 (human)): 101% | residual activity (NEK7 (human)): 102% | residual activity (NLK (human)): 94.8% | residual activity (PAK7 (human)): 83.9% | residual activity (PIM2 (human)): 97.7% | residual activity (PTK2 (human)): 93% | residual activity (PTK2B (human)): 80.6% | residual activity (SRPK1 (human)): 95.4% | residual activity (SRPK2 (human)): 92.3% | residual activity (STK24 (human)): 82.5% | residual activity (STK33 (human)): 83.7% | residual activity (TAOK3 (human)): 87.6%
